From patent US5182378A, “Sulfate derivatives of galactan extracted from Klebsiella” (Roussel Uclaf, priority 1989, dated 1993)

Key:
HIV virus (H9 cells) = assay: H9 test (reverse transcriptase on supernatant and immunofluorescence on cells); format: cell-based; settings: D+11; for Reverse Transcriptase % inhibition / Reverse Transcriptase cpm/cm^3 × 10^4: H9 cells supernatant; for Immunofluorescence % fluorescent cells / Immunofluorescence % inhibition: H9 cells
Protocol: H9 cells were used which were treated with polybrene, washed, and taken up in 100 microliters of medium, with or without the studied product at different concentrations. After incubating for 2 hours at 37° C. 100 microliters of HIV virus at 1/10 were added and the mixture was kept for 1 hour at 37° C. and then washed. The cells were taken up in 1 ml of medium with or without the studied product, and distributed into 2 wells, 500 microliters per well and 2×10^5 cells by well. On D+4, 500 microliters of culture medium with or without the studied product were added. On D+8, half of the supernatant was replaced with new medium. On D+11, a quantitative analysis by reverse transcriptase was carried out on the supernatant and an immunofluorescent determination was carried out on the cells. The results are shown hereafter.

HIV virus (MT4 cells) = assay: MT4 / MTT test (inhibition of the infection of MT4 cells); format: cell-based; settings: 7 days at 37° C., MTT reading
Protocol: technique: 100 microliter dilutions of the virus in series in a microtitration plate addition of 100 microliters of cellular suspension containing 5×10^4 MT4 cells culture 7 days at 37° C., 5% CO2 addition of MTT (tetrazolium salt viability coloring agent) incubation 4 hours at 37° C. halting the reaction by the addition of a hydrochloric acid solution in isopropane reading of the optical density (OD) at 540 nm (after dissolution of the crystals).
MT4 cells at 10^6 cells/ml were used and dilution to 1/2 took place with or without the studied product at different concentrations. 100 microliters of HIV virus at different dilutions and 100 microliters of pre-treated cell suspension were introduced onto a microtitration plate. Incubation took place at 37° C. for 7 days and the MTT was added and a reading was taken with a spectrophotometer. The percentage inhibition of the infection of MT4 cells was determined and the results are shown hereafter: […]

[1] = system: syncitia formation in co-culture of H 9 III cells (chronically infected) with SUP T1 cells; assay: Inhibition of syncitia (co-culture of H 9 III cells with SUP T1 cells); format: cell-based, HIV; settings: for Percentage of inhibition (syncitia), H 9 III cells: H 9 III cells pre-incubated with product one night at 37° C. before co-culture; for Percentage of inhibition (syncitia), Sup Ti cells: Sup Ti cells pre-incubated with product one night at 37° C. before co-culture; for Percentage of inhibition (syncitia), Test no. 1 / Percentage of inhibition (syncitia), Test no. 2: co-culture with product without previous incubation
Protocol: The activity of the sulfate derivative of galactan extracted from Klebsiella was determined by measurement of the inhibition of syncitia [Gruters et al, Nature, Vol. 330, p. 74 to 77, (5 Nov. 1987)] and by determination of the protective activity exercised vis-a-vis certain cell cultures.
A co-culture of H 9 III cells (chronically infected 10^5 cells/ml) with SUP T1 cells (non-infected: 2×10^5 cells/ml) was carried out and there was syncitia formation which was counted with a microscope. Each type of cell was pre-incubated or non-preincubated with the studied product for one night at 37° C. If there was no pre-incubation, the studied product was added to cells at the moment the culture was carried out. When there was inhibition of Syncitia formation in the treated cells relative to the control cells, the studied product was protective. The results obtained are shown hereafter.

Q: For “Sulfate derivative of the qalactan extracted from Klebsiella [Example 1]”, which “Reverse Transcriptase % inhibition” value (HIV virus (H9 cells); 1 micrograms/cm^3) is on record?
A: The value was 76%.

Q: What about the “Reverse Transcriptase cpm/cm^3 × 10^4” value (HIV virus (H9 cells); 1 micrograms/cm^3) of the same substance?
A: Its value is 6.42 cpm/cm^3 × 10^4.

Q: And the “Immunofluorescence % fluorescent cells” value (HIV virus (H9 cells); 1 micrograms/cm^3)?
A: Its value is 3%.

Q: And the Immunofluorescence % inhibition (HIV virus (H9 cells); 1 micrograms/cm^3)?
A: Its Immunofluorescence % inhibition is 94%.

Q: And the “Reverse Transcriptase % inhibition” value (HIV virus (H9 cells); 10 micrograms/cm^3)?
A: Its value is 100%.

Q: What about the “Reverse Transcriptase cpm/cm^3 × 10^4” value (HIV virus (H9 cells); 10 micrograms/cm^3) of the same substance?
A: Its value is 1.16 cpm/cm^3 × 10^4.

Q: And the “Immunofluorescence % fluorescent cells” value (HIV virus (H9 cells); 10 micrograms/cm^3)?
A: The value was 0%.

Q: And the Immunofluorescence % inhibition (HIV virus (H9 cells); 10 micrograms/cm^3)?
A: Its Immunofluorescence % inhibition is 100%.

Q: And the “Reverse Transcriptase % inhibition” value (HIV virus (H9 cells); 100 micrograms/cm^3)?
A: Its value is 100%.

Q: What about the “Reverse Transcriptase cpm/cm^3 × 10^4” value (HIV virus (H9 cells); 100 micrograms/cm^3) of the same substance?
A: The value was 1.12 cpm/cm^3 × 10^4.

Q: What about the “Immunofluorescence % fluorescent cells” value (HIV virus (H9 cells); 100 micrograms/cm^3) of the same substance?
A: The value was 0%.

Q: And the Immunofluorescence % inhibition (HIV virus (H9 cells); 100 micrograms/cm^3)?
A: Its Immunofluorescence % inhibition is 100%.

Q: And the “Percentage of inhibition of the infection of MT4 cells” value (HIV virus (MT4 cells); 1 micrograms/cm^3)?
A: The value was 74%.

Q: And the “Percentage of inhibition of the infection of MT4 cells” value (HIV virus (MT4 cells); 10 micrograms/cm^3)?
A: The value was 99%.

Q: What about the “Percentage of inhibition of the infection of MT4 cells” value (HIV virus (MT4 cells); 100 micrograms/cm^3) of the same substance?
A: The value was 84%.

Q: What about the “Percentage of inhibition (syncitia), H 9 III cells” value ([1]; 1 micrograms/cm^3) of the same substance?
A: Its value is 17%.

Q: And the “Percentage of inhibition (syncitia), Sup Ti cells” value ([1]; 1 micrograms/cm^3)?
A: The value was 23%.

Q: What about the “Percentage of inhibition (syncitia), Test no. 1” value ([1]; 1 micrograms/cm^3) of the same substance?
A: The value was 0%.

Q: And the “Percentage of inhibition (syncitia), Test no. 2” value ([1]; 1 micrograms/cm^3)?
A: Its value is 10%.

Q: What about the “Percentage of inhibition (syncitia), H 9 III cells” value ([1]; 10 micrograms/cm^3) of the same substance?
A: The value was 23%.

Q: And the “Percentage of inhibition (syncitia), Sup Ti cells” value ([1]; 10 micrograms/cm^3)?
A: The value was 27%.

Q: And the “Percentage of inhibition (syncitia), Test no. 1” value ([1]; 10 micrograms/cm^3)?
A: Its value is 42%.

Q: What about the “Percentage of inhibition (syncitia), Test no. 2” value ([1]; 10 micrograms/cm^3) of the same substance?
A: Its value is 17%.

Q: What about the “Percentage of inhibition (syncitia), H 9 III cells” value ([1]; 100 micrograms/cm^3) of the same substance?
A: The value was 100%.

Q: And the “Percentage of inhibition (syncitia), Sup Ti cells” value ([1]; 100 micrograms/cm^3)?
A: The value was 100%.

Q: And the “Percentage of inhibition (syncitia), Test no. 1” value ([1]; 100 micrograms/cm^3)?
A: Its value is 100%.

Q: What about the “Percentage of inhibition (syncitia), Test no. 2” value ([1]; 100 micrograms/cm^3) of the same substance?
A: The value was 100%.
